According to US5712274A, “Thienotriazolodiazepine compounds and their pharmaceutical use” (Yoshitomi Pharmaceutical Industries, Ltd., priority 1995, dated 1998):

Key:
CD11b = assay: Effect on CD11b expression in human histiocytic leukemia cell line, U937 cells (PDB-induced); type: cell-based; conditions: U-937, 72 h, U937 cells, PDB 10 ng/ml, 3 days, read-out: Inhibitory effect on CD11b expression (IC50)
Protocol: Effect on CD11b expression human histiocytic leukemia cell line, U937 cells
Effect on the expression of CD11b antigen, which is the α chain of an adhesion molecule, Mac-1 expressing on the surface of leukocytgic cells, was investigated. U937 cells were suspended in RPMI1640 medium containing 20% fetal calf serum (FCS), plated with phorbol 12,13-dibutyrate (PDB, 10 ng/ml) into 96-well filtration plates, and cultured for 3 days at 37° C. in 5% CO2. After the cells were washed once with RPMI1640 medium, rat anti-human CD11b antibody (2 μg/ml) was added to each well and the plates were incubated for 1 hr on ice. After the cell were washed twice, peroxidase-conjugated anti-rat immunoglobulin antibody (1 μg/ml) was added, and the cells were incubated for 1 hr on ice. After the cells were washed 3 times, substrate for peroxidase (o-phenylenediamine) was added. After the plates were stood for 15 min at room temperature, absorbance at 490 nm was measured with a 96-well microplate reader and was regarded as a indicator of CD11b antigen expression.

ELAM-1 = assay: Inhibitory effect on TNF-α-induced expression of ELAM-1 in HUVECs; type: cell-based; conditions: Homo sapiens, HUVEC; HUVECs, TNF-α 100 U/ml, 5 hr; read-out: Inhibitory effect (IC50) on ELAM-1 expression
Protocol: Inhibitory effect on expression of VCAM-1 and ELAM-1 in human umbilical vein-derived endothelial cells (HUVECs)
HUVECs were suspended in 199 medium containing 20% FCS, 20 μg/ml endothelial cell growth factor derived from bovine brain, and 100 μg/ml heparin, plated into 96-well microculture plates coated with collagen, and cultured at 37° C. in 5% CO2. When cells were grown to confluence, the cells received tumour necrosis factor (TNF)-α (20 U/ml for VCAM-1 expression, 100 U/ml for ELAM-1 expression) and cultured for 5 hr. After the cells were washed once with 199 medium, mouse anti-human VCAM-1 monoclonal antibody (2 μg/ml) or rat anti-human ELAM-1 monoclonal antibody (2 μg/ml) was added, and the cells were incubated for 1 hr at room temperature. After the cells were washed twice, peroxidase-conjugated anti-mouse immunoglobulin antibody or anti-rat immunoglobulin antibody was added, and the cells were incubated for 1 hr at room temperature. After the cells were washed 3 times, 2,2'-azino-bis(3-ethylbenzothiazolone-6-sulfonic acid) was added. After the plates were stood for 15 min at room temperature, absorbance at 405 nm with a reference wave length of 490 nm was measured with a 96-well microplate reader and was regarded as a indicator of VCAM-1 or ELAM-1 expression.

[1] = test system: oxazolone-induced ear edema; assay: Effect on oxazolone-induced ear edema in mice; type: in vivo; conditions: sensitized mice, 24 hr after challenge
Protocol: Effect on oxazolone-induced ear edema in mice.
Mice were sensitized by applying 50 μl of oxazolone solution (50 mg/ml in acetone) to their shaved abdomen on day 0. On day 7, 5 μl of oxazolone solution was applied to each surface of the right ear. After 24 hr (day 8), the right and left ears were cut off with a puncher of 6 mm in diameter and weighed with an electronic reading balance. The difference in weight between the oxazolone-treated ear (right) and untreated ear (left) was taken to reflect the extent of ear edema. Test compounds were suspended in 0.5% hydroxypropylmethycellulose solution and administered p.o. (0.1 ml/10 g body weight) on days 0 to 4 (once a day) and day 7 (twice a day).

CNC(=O)C[C@@H]1N=C(c2ccc(Cl)cc2)c2c(sc(C)c2C)-n2c(C)nnc21 [Example 1, (S)-N-methyl-4-(4-chloro-phenyl)-2,3,9-trimethyl-6H-thieno[3,2-f][1,2,4]triazolo[4,3-a]-[1,4]diazepine-6-acetamide 1/4 hydrate]
IC50 (CD11b): 260 nM | IC50 (ELAM-1): 52 nM | Increase in ear weight (mean ± S.D.) ([1]; 0.1 mg/kg p.o.): 16.3 ± 1.0 mg | Increase in ear weight (mean ± S.D.) ([1]; 0.3 mg/kg p.o.): 15.0 ± 0.6 mg | Increase in ear weight (mean ± S.D.) ([1]; 1 mg/kg p.o.): 14.2 ± 0.8 mg
